Common to all, as to format: functional
Holding throughout (details): read-out: DIZ

The subject of assay [1] is Proteus vulgaris. The assay is described as follows: Antibacterial activity against Proteus vulgaris MTCC 1771 at 75 ug/ml after overnight incubation by disk diffusion method.
Assay [2] has as its system Bacillus subtilis. The assay is described as follows: Antibacterial activity against Bacillus subtilis MTCC 619 at 75 ug/ml after overnight incubation by disk diffusion method.
In assay [3] the test system is Klebsiella pneumoniae. The assay is described as follows: Antibacterial activity against Klebsiella pneumoniae MTCC 109 at 75 ug/ml after overnight incubation by disk diffusion method.
In assay [4] the test system is Staphylococcus aureus. The assay is described as follows: Antibacterial activity against Staphylococcus aureus MTCC 96 at 75 ug/ml after overnight incubation by disk diffusion method.
Assay [5] deals with Escherichia coli. The assay is described as follows: Antibacterial activity against Escherichia coli MTCC 722 at 75 ug/ml after overnight incubation by disk diffusion method.
Assay [6] concerns Proteus vulgaris. The assay is described as follows: Antibacterial activity against Proteus vulgaris MTCC 1771 at 30 ug/ml after overnight incubation by disk diffusion method.
Assay [7] has as its system Bacillus subtilis. In words: Antibacterial activity against Bacillus subtilis MTCC 619 at 30 ug/ml after overnight incubation by disk diffusion method.
The test system of assay [8] is Escherichia coli. The assay is described as follows: Antibacterial activity against Escherichia coli MTCC 722 at 30 ug/ml after overnight incubation by disk diffusion method.
In assay [9] the test system is Klebsiella pneumoniae. The assay is described as follows: Antibacterial activity against Klebsiella pneumoniae MTCC 109 at 30 ug/ml after overnight incubation by disk diffusion method.
In assay [10] the test system is Staphylococcus aureus. The assay is described as follows: Antibacterial activity against Staphylococcus aureus MTCC 96 at 30 ug/ml after overnight incubation by disk diffusion method.

Turning to `CCCCCCCCCCCCCCCCN(CCCCCCCCCCCCCCCC)Cc1c2nc(cc3ccc(cc4nc(cc5ccc1[nH]5)C=C4)[nH]3)C=C2`, the zone of inhibition at 75 µg/mL worked out at 14 mm with Proteus vulgaris [1]; 16 mm in the assay with Bacillus subtilis [2]; 12 mm in the assay on Klebsiella pneumoniae [3]; 15 mm with Staphylococcus aureus [4]; 14 mm in the assay with Escherichia coli [5].
In the case of `CCCCCCCCCCCCCCCCC/C1=c2\cc/c([nH]2)=C(\CCCCCCCCCCCCCCCCC)C2=N/C(=C\C3=NC(=CC3)/C=C3/C=CC1=N3)C=C2`, the zone of inhibition at 75 µg/mL in the assay on Proteus vulgaris [1] was 12 mm; with Bacillus subtilis [2], 14 mm; in the assay on Klebsiella pneumoniae [3], 10 mm; with Staphylococcus aureus [4] it was 13 mm; in the assay with Escherichia coli [5], 13 mm.
In the case of `O=C(N[C@H](CO)[C@H](O)c1ccc([N+](=O)[O-])cc1)C(Cl)Cl` [CHLORAMPHENICOL], the zone of inhibition at 30 µg/mL in the assay with Proteus vulgaris [6] is 14 mm; with Bacillus subtilis [7] it was 23 mm; in the assay on Escherichia coli [8] it was 31 mm; in the assay with Klebsiella pneumoniae [9] it was 24 mm; in the assay with Staphylococcus aureus [10] it was 23 mm.

Source of the values: ChEMBL document CHEMBL3045896, “Synthesis of novel porphyrin-based lipids and their antibacterial activity” (2011).
